Each block holds one molecule with its values, some of them ahead of it.
Columns and labels:
[1] = Biodistribution of [111In]In-radiocomplexes in healthy mice; assay type: in vivo
Experimental: We performed a biodistribution study of the four [^111In]In-radiocomplexes in healthy mice to determine the clearance rate from systemic blood circulation and the tissue/organ distribution over time. […] The urinary tract was identified as the main excretory pathway since the highest % I.D./g values were found in the kidneys for all the radiocomplexes, associated to rapid radioactivity excretion both at 15 min and 1 h p.i. […] page 9: from whole animal body. Blood samples were taken by cardiac puncture at sacrifice. […] The animals were kept under […] volume of approximate 390 ± 190 mm3. […] […] carried out on groups of 8 mice (n = 4). […] The animals were weighed and dissected.

[2] = In vivo stability: HPLC analysis of urine of injected mice; conditions: mouse urine, 1 h p.i.
Experimental: To assess the in vivo stability of the radiocomplexes, samples of blood and urine were collected from the mice injected with the compounds and analyzed by HPLC.
Blood samples from mice injected with the tested radiocomplexes, collected at sacrifice time, were
centrifuged, the serum separated and treated with ethanol (1:2 proportion) to precipitate the proteins
and the supernatant was analyzed by HPLC for stability evaluation. The urine samples were centrifuged
at 3000 rpm for 10 min and the supernatant was also analyzed by HPLC.

[3] = system: PC3 xenografts; assay: In vivo click (pre-targeting) biodistribution of [111In]In-DOTA-Tz in PC3-xenografts bearing mice pretargeted with TCO-PEG4-AR; design: Biodistribution: Blood: dose or concentration left out as unconfirmed; conditions: 1 h p.i.
Experimental: from whole animal body. Blood samples were taken by cardiac puncture at sacrifice. Tissue samples
Biodistribution in PC3 bearing mice
Membrane Matrix (BD Sciences) under anaesthesia with 2% isoflurane. The animals were kept under
volume of approximate 390 ± 190 mm3. Animals were allocated into treatment groups using a complete
carried out on groups of 8 mice (n = 4).
At appropriate time points (15 min,
Immediately after injection,
DOTA-Tz (0.1mL, 50 – 75 µCi µCi).
assumed to be due to total excretion. The animals were weighed and dissected. Then, tissues of interest
radioactivity and weighted.

[4] = Lipophilicity, octanol-water partition coefficient by shake-flask method; assay type: physicochemical; conditions: 1-octanol / PBS pH 7.4
Experimental: Given the limited effect of the pegylated linker on the plasmatic half-life, we focused our successive in vitro stability studies and lipophilicity measurements on the two non-pegylated derivatives [^111In]In-DOTA-Tz and [^111In]In-DOTAGA-Tz. The lipophilicity was evaluated by determination of their partition coefficient log Po/w using the shake-flask method. […] In HS the stability was very good up to 2 h of incubation, but after 4 h of incubation, the degradation started to be quite important with 50 and 30% of the compound degraded for [^111In]In-DOTA-Tz and [^111In]In-DOTAGA-Tz, respectively. […] Taken together, excellent stability of the two [^111In]In-radiocomplexes was observed both in CCM and HS at 37°C for incubation times up to 2 h. […]
Lipophilicity Determination
After phase separation, aliquots

[5] = In vitro stability of [111In]In-radiocomplexes in cell culture media, human serum and PBS at 37 °C (HPLC); assay type: in vitro ADME; conditions: for stability in PBS: 24 h at 37°C; for level of degradation in CCM / stability in CCM: cell culture media; for level of degradation in CCM / stability in CCM / stability in HS / compound degraded in HS: 37°C; for level of degradation in CCM: after 24 h; for stability in CCM: first 4 h of incubation; for stability in HS / compound degraded in HS: human serum; for compound degraded in HS: after 4 h of incubation
Experimental: Given the limited effect of the pegylated linker on the plasmatic half-life, we focused our successive in vitro stability studies and lipophilicity measurements on the two non-pegylated derivatives [^111In]In-DOTA-Tz and [^111In]In-DOTAGA-Tz. The lipophilicity was evaluated by determination of their partition coefficient log Po/w using the shake-flask method. […] In HS the stability was very good up to 2 h of incubation, but after 4 h of incubation, the degradation started to be quite important with 50 and 30% of the compound degraded for [^111In]In-DOTA-Tz and [^111In]In-DOTAGA-Tz, respectively. […] Taken together, excellent stability of the two [^111In]In-radiocomplexes was observed both in CCM and HS at 37°C for incubation times up to 2 h.
[111In]In-Radiocomplexes: In vitro and in vivo stability
radiolabelled compound dissolved in different media. For the evaluation of the stability in PBS, Cell
times the volume of the desired medium.
The radiocomplexes incubated in Human
The urine samples were centrifuged
during six days by ITLC analysis.

[6] = In Vivo Click reaction: PC3 xenograft mice pretargeted with TCO-PEG4-AR (4 h prior administration, 1 nM)
[7] = In Vivo Click reaction: PC3 xenograft mice pretargeted with TCO-PEG4-AR (4 h prior administration, 1 nM), listed as [^111In]In-DOTA-Tz
[8] = in vivo click chemistry, pretargeted with TCO-PEG4-AR

Biodistribution: Blood ([1]; 15 min p.i.): 3.1 ± 0.4 % I.D./g
Biodistribution: Bone ([1]; 15 min p.i.): 0.78 ± 0.08 % I.D./g
Biodistribution: Heart ([1]; 15 min p.i.): 1.0 ± 0.2 % I.D./g
Biodistribution: Intestine ([1]; 15 min p.i.): 0.32 ± 0.05 % I.D./g
Biodistribution: Kidney ([1]; 15 min p.i.): 5.8 ± 1.3 % I.D./g
Biodistribution: Liver ([1]; 15 min p.i.): 1.1 ± 0.2 % I.D./g
Biodistribution: Lung ([1]; 15 min p.i.): 1.6 ± 0.3 % I.D./g
Biodistribution: Muscle ([1]; 15 min p.i.): 0.9 ± 0.2 % I.D./g
Biodistribution: Pancreas ([1]; 15 min p.i.): 0.53 ± 0.07 % I.D./g
Biodistribution: Spleen ([1]; 15 min p.i.): 0.66 ± 0.28 % I.D./g
Biodistribution: Stomach ([1]; 15 min p.i.): 0.5 ± 0.3 % I.D./g
Excretion ([1]; 15 min p.i.): 65.3 ± 5.4 % I.D.
Biodistribution: Blood ([1]; 1 h p.i.): 0.44 ± 0.07 % I.D./g
Biodistribution: Bone ([1]; 1 h p.i.): 0.11 ± 0.01 % I.D./g
Biodistribution: Heart ([1]; 1 h p.i.): 0.15 ± 0.08 % I.D./g
Biodistribution: Intestine ([1]; 1 h p.i.): 0.05 ± 0.01 % I.D./g
Biodistribution: Kidney ([1]; 1 h p.i.): 1.9 ± 0.3 % I.D./g
Biodistribution: Liver ([1]; 1 h p.i.): 0.70 ± 0.30 % I.D./g
Biodistribution: Lung ([1]; 1 h p.i.): 0.36 ± 0.04 % I.D./g
Biodistribution: Muscle ([1]; 1 h p.i.): 0.10 ± 0.02 % I.D./g
Biodistribution: Pancreas ([1]; 1 h p.i.): 0.09 ± 0.01 % I.D./g
Biodistribution: Spleen ([1]; 1 h p.i.): 0.18 ± 0.04 % I.D./g
Biodistribution: Stomach ([1]; 1 h p.i.): 0.09 ± 0.02 % I.D./g
Excretion ([1]; 1 h p.i.): 93.6 ± 0.8 % I.D.
Excretion ([1]; 1 h p.i., listed as [^111In]In-DOTA-PEG-Tz): above 90 % I.D.
in vivo stability / metabolization (urine HPLC) [2]: overall low degree of metabolization
SMILES: O=C([O-])CN1CCN(CC(=O)[O-])CCN(CC(=O)NCCOCCOCCOCCOCCOCCOCCOCCOCCOCCOCCOCCNC(=O)CCCC(=O)NCc2ccc(-c3nncnn3)cc2)CCN(CC(=O)[O-])CC1.[111In+3] [[111In]In-DOTA-PEG-Tz]

Biodistribution: Blood ([1]; 15 min p.i.): 2.5 ± 1.4 % I.D./g
Biodistribution: Bone ([1]; 15 min p.i.): 1.0 ± 0.7 % I.D./g
Biodistribution: Heart ([1]; 15 min p.i.): 0.8 ± 0.5 % I.D./g
Biodistribution: Intestine ([1]; 15 min p.i.): 0.3 ± 0.2 % I.D./g
Biodistribution: Kidney ([1]; 15 min p.i.): 5.2 ± 3.3 % I.D./g
Biodistribution: Liver ([1]; 15 min p.i.): 2.3 ± 0.8 % I.D./g
Biodistribution: Lung ([1]; 15 min p.i.): 1.8 ± 0.9 % I.D./g
Biodistribution: Muscle ([1]; 15 min p.i.): 1.1 ± 0.9 % I.D./g
Biodistribution: Pancreas ([1]; 15 min p.i.): 0.4 ± 0.2 % I.D./g
Biodistribution: Spleen ([1]; 15 min p.i.): 0.8 ± 0.2 % I.D./g
Biodistribution: Stomach ([1]; 15 min p.i.): 0.3 ± 0.2 % I.D./g
Excretion ([1]; 15 min p.i.): 58.3 ± 25.3 % I.D.
Biodistribution: Blood ([1]; 1 h p.i.): 0.32 ± 0.07 % I.D./g
Biodistribution: Bone ([1]; 1 h p.i.): 0.12 ± 0.03 % I.D./g
Biodistribution: Heart ([1]; 1 h p.i.): 0.11 ± 0.02 % I.D./g
Biodistribution: Intestine ([1]; 1 h p.i.): 0.05 ± 0.01 % I.D./g
Biodistribution: Kidney ([1]; 1 h p.i.): 1.6 ± 0.3 % I.D./g
Biodistribution: Liver ([1]; 1 h p.i.): 0.29 ± 0.09 % I.D./g
Biodistribution: Lung ([1]; 1 h p.i.): 0.29 ± 0.03 % I.D./g
Biodistribution: Muscle ([1]; 1 h p.i.): 0.08 ± 0.01 % I.D./g
Biodistribution: Pancreas ([1]; 1 h p.i.): 0.06 ± 0.01 % I.D./g
Biodistribution: Spleen ([1]; 1 h p.i.): 0.09 ± 0.01 % I.D./g
Biodistribution: Stomach ([1]; 1 h p.i.): 0.09 ± 0.05 % I.D./g
Excretion ([1]; 1 h p.i.): 91.8 ± 1.0 % I.D.
Excretion ([1]; 1 h p.i., listed as [^111In]In-DOTA-Tz): above 90 % I.D.
Biodistribution: Blood ([3]; In Vivo Click reaction: PC3 xenograft mice pretargeted with TCO-PEG4-AR (4 h prior administration)): 0.28 ± 0.09 % I.D./g
Biodistribution: Bone [3, 6]: 0.21 ± 0.09 % I.D./g
Biodistribution: Heart [3, 6]: 0.12 ± 0.04 % I.D./g
Biodistribution: Intestine [3, 6]: 0.12 ± 0.04 % I.D./g
Biodistribution: Kidney [3, 6]: 1.5 ± 0.3 % I.D./g
Biodistribution: Liver [3, 6]: 0.3 ± 0.1 % I.D./g
Biodistribution: Lung [3, 6]: 0.26 ± 0.06 % I.D./g
Biodistribution: Muscle [3, 6]: 0.15 ± 0.11 % I.D./g
Biodistribution: Spleen [3, 6]: 0.11 ± 0.04 % I.D./g
Biodistribution: Stomach [3, 6]: 0.09 ± 0.06 % I.D./g
Biodistribution: Tumour [3, 6]: 0.78 ± 0.54 % I.D./g
Biodistribution: Kidney [3, 7]: 1.5 % I.D./g
Biodistribution: Tumour [3, 7]: 0.78 % I.D./g
tumor/blood ratio [3, 8]: 2.8
tumor/muscle ratio [3, 8]: 5.2
log Po/w [4]: −1.60 ± 0.13
stability in PBS [5]: > 85%
level of degradation in CCM [5]: 70%
stability in CCM [5]: very good stability
stability in HS ([5]; 24 h of incubation): almost completely degraded
compound degraded in HS [5]: 50%
stability in HS ([5]; up to 2 h of incubation): very good
SMILES: O=C([O-])CN1CCN(CC(=O)[O-])CCN(CC(=O)NCc2ccc(-c3nncnn3)cc2)CCN(CC(=O)[O-])CC1.[111In+3] [[111In]In-DOTA-Tz]
in vivo stability / metabolization (urine HPLC) [2]: eliminated without undergoing any metabolization or degradation

Biodistribution: Blood ([1]; 15 min p.i.): 3.2 ± 0.7 % I.D./g
Biodistribution: Bone ([1]; 15 min p.i.): 1.2 ± 0.2 % I.D./g
Biodistribution: Heart ([1]; 15 min p.i.): 0.9 ± 0.2 % I.D./g
Biodistribution: Intestine ([1]; 15 min p.i.): 0.4 ± 0.1 % I.D./g
Biodistribution: Kidney ([1]; 15 min p.i.): 7.2 ± 0.4 % I.D./g
Biodistribution: Liver ([1]; 15 min p.i.): 1.6 ± 0.4 % I.D./g
Biodistribution: Lung ([1]; 15 min p.i.): 1.9 ± 0.4 % I.D./g
Biodistribution: Muscle ([1]; 15 min p.i.): 0.9 ± 0.2 % I.D./g
Biodistribution: Pancreas ([1]; 15 min p.i.): 0.6 ± 0.1 % I.D./g
Biodistribution: Spleen ([1]; 15 min p.i.): 0.6 ± 0.1 % I.D./g
Biodistribution: Stomach ([1]; 15 min p.i.): 0.6 ± 0.3 % I.D./g
Excretion ([1]; 15 min p.i.): 62.7 ± 1.5 % I.D.
Biodistribution: Blood ([1]; 1 h p.i.): 1.1 ± 0.3 % I.D./g
Biodistribution: Bone ([1]; 1 h p.i.): 0.5 ± 0.1 % I.D./g
Biodistribution: Heart ([1]; 1 h p.i.): 0.4 ± 0.1 % I.D./g
Biodistribution: Intestine ([1]; 1 h p.i.): 0.26 ± 0.09 % I.D./g
Biodistribution: Kidney ([1]; 1 h p.i.): 3.6 ± 1.0 % I.D./g
Biodistribution: Liver ([1]; 1 h p.i.): 1.0 ± 0.3 % I.D./g
Biodistribution: Lung ([1]; 1 h p.i.): 0.8 ± 0.2 % I.D./g
Biodistribution: Muscle ([1]; 1 h p.i.): 0.27 ± 0.07 % I.D./g
Biodistribution: Pancreas ([1]; 1 h p.i.): 0.3 ± 0.1 % I.D./g
Biodistribution: Spleen ([1]; 1 h p.i.): 0.3 ± 0.1 % I.D./g
Biodistribution: Stomach ([1]; 1 h p.i.): 0.3 ± 0.2 % I.D./g
Excretion ([1]; 1 h p.i.): 81.5 ± 5.1 % I.D.
Biodistribution: Kidney ([1]; 1 h p.i., listed as [^111In]In-DOTAGA-Tz): 3.6 ± 1 % I.D./g
log Po/w [4]: −3.44 ± 0.29
stability in PBS [5]: > 85%
level of degradation in CCM [5]: 70%
stability in CCM [5]: very good stability
stability in HS ([5]; 24 h of incubation): almost completely degraded
compound degraded in HS [5]: 30%
stability in HS ([5]; up to 2 h of incubation): very good
in vivo stability / metabolization (urine HPLC) [2]: overall low degree of metabolization
SMILES: O=C([O-])CN1CCN(CC(=O)[O-])CCN(C(CCC(=O)NCc2ccc(-c3nncnn3)cc2)C(=O)[O-])CCN(CC(=O)[O-])CC1.[111In+3] (centres unmarked) [[111In]In-DOTAGA-Tz]

Source: PMC8225959, “Clickable Radiocomplexes With Trivalent Radiometals for Cancer Theranostics: In vitro and in vivo Studies” (Frontiers in Medicine, 2021)
